Assays:
Assay type in all cases: cell-based
[1] = test system: P-388 (suspension culture of a lymphoid neoplasm from DBA/2 mouse); test: Cytotoxic activity screening, P-388 cells; details: P388, 72 h, three days of incubation, approximate IC50
Experimental: (§1) Cell Cultures. Cells were maintained in logarithmic phase of growth in Eagle's Minimum Essential Medium, with Earle's Balanced Salts, with 2.0 mM L-glutamine, with non-essential amino acids, without sodium bicarbonate (EMEM/neaa); supplemented with 10% Fetal Calf Serum (FCS), 10^−2 M sodium bicarbonate and 0.1 g/l penicillin-G+streptomycin sulfate.
(§2) A simple screening procedure has been carried out to determine and compare the antitumour activity of these compounds, using an adapted form of the method described by Bergeron et al (1984). The tumour cell line employed have been P-388 (suspension culture of a lymphoid neoplasm from DBA/2 mouse), A-549 (monolayer culture of a human lung carcinoma), HT-29 (monolayer culture of a human colon carcinoma) and MEL-28 (monolayer culture of a human melanoma).
P-388 cell were seeded into 16 mm wells at 1×10^4 cells per well in 1 ml aliquots of MEM 5FCS containing the indicated concentration of drug. A separate set of cultures without drug was seeded as control growth to ensure that cells remained in exponential phase of growth. All determinations were carried out in duplicate.

[2] = test system: A-549 (monolayer culture of a human lung carcinoma); test: Cytotoxic activity screening, A-549 cells; details: A549, 72 h, three days of incubation, Crystal Violet, approximate IC50
Experimental: as §1, §2
(§3) A-549, HT-29 and MEL-28 were seeded into 16 mm wells at 2×10^4 cells per well in 1 ml aliquots of MEM 10FCS containing the indicated concentration of drug. A separate set of cultures without drug was seeded as control growth to ensure that cells remained in exponential phase of growth. All determinations were carried out in duplicate. After three days of incubation at 37° C., 10% CO2 in a 98% humid atmosphere, the wells were stained with 0.1% Crystal Violet. An approximately IC50 was determined by comparing the growth in wells with drug to the growth in wells control.

[3] = test system: HT-29 (monolayer culture of a human colon carcinoma); test: Cytotoxic activity screening, HT-29 cells; details: HT-29, 72 h, three days of incubation, Crystal Violet, approximate IC50
Experimental: as §1, §2, §3

[4] = test system: MEL-28 (monolayer culture of a human melanoma); test: Cytotoxic activity screening, MEL-28 cells; details: SK-MEL-28, 72 h, three days of incubation, Crystal Violet, approximate IC50
Experimental: as §1, §2, §3

DU-145 = test: Cytotoxic activity screening, DU-145 cells; details: Homo sapiens, DU-145, DU-145 cells

`CCCCCCCCCC(=O)NC[C@H]1c2c(c(OC(C)=O)c(C)c3c2OCO3)CC2[C@H]3c4c(cc(C)c(OC)c4O)C[C@@H]([C@H](C#N)N21)N3C` (stereo partly drawn) was tested, and the IC50 [1] was 0.007 µM, the IC50 [2] was 0.007 µM and the IC50 [3] was 0.007 µM. It also gave an IC50 [4] of 0.007 µM and an IC50 (DU-145) of 0.007 µM.
Work on `CCCC(=O)N[C@@H](C)C(=O)NC[C@H]1c2c(c(OC(C)=O)c(C)c3c2OCO3)CC2[C@H]3c4c(cc(C)c(OC)c4O)C[C@@H]([C@H](C#N)N21)N3C` (stereo partly drawn) yielded an IC50 [1] of 0.001 µM, an IC50 [2] of 0.001 µM and an IC50 [3] of 0.0005 µM. It also gave an IC50 [4] of 0.0005 µM and an IC50 (DU-145) of 0.001 µM.
With `COc1c(C)cc2c(c1O)[C@@H]1C3Cc4c(OC(C)=O)c(C)c5c(c4[C@H](CNC(=O)/C=C/c4ccccc4)N3[C@@H](C#N)[C@H](C2)N1C)OCO5` (stereo partly drawn) the IC50 [1] was 0.0001 µM, the IC50 [2] was 0.0001 µM and the IC50 [3] was 0.0001 µM. The IC50 [4] was 0.0001 µM and the IC50 (DU-145) was 0.0001 µM.

Source: patent publication US7524956B2, “Hemisynthetic method and new compounds” (Pharma Mar, S.A., priority 1999, dated 2009)
